# Data: patent US11090312B2, “Methods of treating hypogonadism with transnasal testerosterone bio-adhesive gel formulations in male with allergic rhinitis, and methods for preventing an allergic rhinitis event” (Acerus Biopharma Inc., priority 2013, dated 2021)
# Columns and labels:
# [1] = pKa assessment of testosterone; details: from molecular structure
# [2] = Solubility of testosterone in water, solvents and oils; details: maximum
structure (smiles),measurement,setting,value
"C[C@]12CC[C@H]3[C@@H](CCC4=CC(=O)CC[C@@]43C)[C@@H]1CC[C@@H]2O [Testosterone, 17β-Hydroxyandrost-4-en-3-one]",pKa,[1],no pKa value in the range 1-14
same,Solubility in castor oil pure,[2],≤ 3.6%
